Measurements reported in patent US6433022B1, “Spermicide” (Medical Research Council, priority 1997, dated 2002).

How the values were obtained:
Type in all cases: cell-based
[1] = tested on: human sperm; assay: Effect of quinones on sperm motility; settings: for mean motility score: 50 μM quinone, human sperm
Description: Following the preparation of spermatozoa by standard Percoll gradient they were resuspended in homologous seminal plasma to a concentration of 20 million per ml, immediately prior to the beginning of the experiment. 50 μl of the sperm suspension was placed in an eppendorf tube, and the quinone was either added alone or in combination with other reagents, for example, KI, HRP (Horseradish Peroxidase), BHT (butylated hydroxytoluene) etc. depending on the experiment. The volume was made up to 100 μl with BWW/PVA.
The quinone was always the final reagent to be added. […] The sample was gently agitated and 10 μl was placed on a slide and a motility was scored. The aim was to score a motility approximately 20 seconds following the addition of the quinone. There were two controls set up, one motility count taken at the beginning of the experiment (initial control) and one motility count taken at the end of the experiment (final control). The controls consisted of 50 μl of the sperm suspension followed by the addition of 50 μl BWW/PVA. The reason for having two controls was to observe if any changes in sperm motility had occurred simply as a factor of time, i.e. from residing in seminal plasma for a long duration. At all times during the experiment, the spermatozoa were incubated in a hot box at 24° C. All motility experiments were carried out on sperm suspended in seminal plasma unless otherwise stated.

[2] = tested on: human spermatozoa; assay: Nicotinamide dinucleotide-induced superoxide generation, lucigenin-dependent chemiluminescence; settings: 500 μM nucleotide
From the text: (§1) ROS generation was monitored by luminometry employing the chemiluminescence probes lucigenin and luminol. Lucigenin is sensitive to the presence of superoxide anion and was used to monitor the free radical responses to NAD(P)H. Luminol, when used in conjunction with horseradish peroxidase (HRP; Sigma Type Vl, 288 U/mg), detects mainly hydrogen peroxide (Aitken et al., 1992) and was used to monitor the responses of spermatozoa to PMA (phorbol 12-myristate, 13-acetate), an activator of protein kinase C. NAD(P)H could not be used with the luminol-peroxidase system because of the generation of high background signals, presumably due to the oxidase reactions of HRP. Photon emission was monitored at 37° C. using the Bermold 9505B luminometer (Berthold, Wilbad, Germany) featuring 6 electronically compensated, peltier cooled, photomultipliers and the results expressed as counts/minute. For both of the probes used, 400 μl of spermatozoa, at a concentration of 10×10^6/ml, were placed in a 3 ml plastic, flat-bottomed plastic tube. For luminol-based reactions, the spermatozoa were suspended in BWW supplemented with Albuminar, but when lucigenin was used the Albuminar was replaced with 1 mg/ml polyvinyl alcohol. A 4 μl aliquot of a 25 mM stock solution of either luminol or lucigenin m-dimethyl sulphoxide (DMSO), was then added to the cell suspension, resulting in a final probe concentration of 250 μM. For the measurement of hydrogen peroxide generation by intact cells, luminol-dependent chemiluminescence was enhanced by addition of 8 μl of HRP, freshly prepared at a concentration of 2 mg/ml in PBS, to give a final HRP concentration of 11.52 U/ml. The luminometer results were recorded as continuous traces and as integrated photon counts over a fixed period of time (5 min).
The ability of human spermatozoa to generate superoxide anion in response to NADPH was monitored by lucigenin-dependent chemiluminescence and compared with its non-phosphorylated and non-reduced counterparts, i.e. NADH, NADP^+ and NAD^+. In addition, the stimulatory properties of an isomer of NADPH, usually non-active in reductive biosynthesis, were examined. All pyridine nucleotides were made up to the required concentration in PBS immediately prior to use. Stock solutions of the nucleotides were made up at concentrations 10 fold higher than the required final working concentration, to allow for a 10 fold dilution on addition to the suspensions of spermatozoa.

[3] = tested on: human spermatozoa; assay: Effect of inhibitors on NADPH-induced ROS generation, lucigenin-dependent chemiluminescence; settings: for Lucigenin dependent chemiluminescence: Treated, NADPH-induced, means ± SE; for effect on NADPH-dependent reactive oxygen species generation: dicoumarol 100 μM, sodium oxamate 1 mM, allopurinol 10 mM; for effect of mitochondrial electron transport chain inhibitors on response to NADPH: intact spermatozoa; for inhibition of the response to NAD(P)H: triton permeabilized cells
From the text: as §1, with “NAD(P)H could not be used with the luminol-peroxidase system because of the generation of high background signals, presumably due to the oxidase reactions of HRP.” left out
(§2) In all experiments, DPI was added to the spermatozoa before the addition of NADPH or PMA while control incubations were supplemented with DMSO alone. ROS generation was recorded for approximately 10 min to establish a steady state signal and then 45 μl of NADPH (final concentration 500 μM) or 4 μl of PMA (final concentration 100 nM) were added and the responses monitored for around 20 min using lucigenin and luminol-peroxidase based chemiluminescence respectively.
Quinacrine was purchased from Sigma and dissolved in 10% DMSO to give a stock solution of 10 mM. […] The impact of quinacrine on NADPH- and PMA-induced ROS generation was monitored as described above for DPI.

[4] = tested on: human spermatozoa; assay: Effect of inhibitors on PMA-induced hydrogen peroxide production, luminol-peroxidase chemiluminescence; settings: 100 nM PMA
From the text: ROS generation was monitored by luminometry employing the chemiluminescence probes lucigenin and luminol. Lucigenin is sensitive to the presence of superoxide anion and was used to monitor the free radical responses to NAD(P)H. Luminol, when used in conjunction with horseradish peroxidase (HRP; Sigma Type Vl, 288 U/mg), detects mainly hydrogen peroxide (Aitken et al., 1992) and was used to monitor the responses of spermatozoa to PMA (phorbol 12-myristate, 13-acetate), an activator of protein kinase C. […] Photon emission was monitored at 37° C. using the Bermold 9505B luminometer (Berthold, Wilbad, Germany) featuring 6 electronically compensated, peltier cooled, photomultipliers and the results expressed as counts/minute. […] The luminometer results were recorded as continuous traces and as integrated photon counts over a fixed period of time (5 min).
as §2, with “respectively. […]” for “respectively.”

In the case of `O=C1C=C(O)C(=O)c2ccccc21` [lawsone], the mean motility score [1] is reported as 51%.
In the case of `NC(=O)c1ccc[n+]([C@@H]2O[C@H](COP(=O)([O-])OP(=O)(O)OC[C@H]3O[C@@H](n4cnc5c(N)ncnc54)[C@H](OP(=O)(O)O)[C@@H]3O)[C@@H](O)[C@H]2O)c1` [NADP^+], the “lucigenin-dependent chemiluminescent response (superoxide anion generation)” value [2] is reported as “almost completely without effect”.
For `Oc1ncnc2[nH]ncc12` [Allopurinol, allopurinol], the Lucigenin dependent chemiluminescence ([3]; inhibitor 10 mM) was 7.19 ± 1.66 counts/5 min × 104 and the “effect on NADPH-dependent reactive oxygen species generation” value [3] was “ineffective”.
For `[N-]=[N+]=[N-]` [Sodium azide, sodium azide], the Lucigenin dependent chemiluminescence ([3]; inhibitor 10 μM) was 7.69 ± 1.54 counts/5 min × 104.
With `CC1=CC(=O)c2c(O)cccc2C1=O` [plumbagin] the mean motility score [1] was 54%.
`NC(=O)c1ccc[n+]([C@@H]2O[C@H](COP(=O)([O-])OP(=O)(O)OC[C@H]3O[C@@H](n4cnc5c(N)ncnc54)[C@H](O)[C@@H]3O)[C@@H](O)[C@H]2O)c1` [NAD^+] was tested, and the “lucigenin-dependent chemiluminescent response (superoxide anion generation)” value [2] was “almost completely without effect”.
In the case of `C=C(C)[C@H]1Cc2c(ccc3c2O[C@@H]2COc4cc(OC)c(OC)cc4[C@@H]2C3=O)O1` [Rotenone, rotenone], the Lucigenin dependent chemiluminescence ([3]; inhibitor 10 μM) is reported as 9.07 ± 2.26 counts/5 min × 104, the “effect of mitochondrial electron transport chain inhibitors on response to NADPH” value [3] is reported as “none of which were effective” and the “inhibition of the response to NAD(P)H” value [3] is reported as “no inhibition”.
In the case of `c1ccc2c(c1)[I+]c1ccccc1-2` [DPI, Diphenylene Iodonium], the “suppression of NADPH-induced free radical generation” value ([3]; 500 μM NADPH, statistically significant at the 1 μM level (P<0.001)) is reported as “dose-dependent capacity to suppress” and the “inhibition of PMA-stimulated hydrogen peroxide production” value ([4]; dose range 0.01-100 μM) is reported as “competent to inhibit”.
For `N#CC(C#N)=NNc1cccc(Cl)c1` [CCP, carbonyl cyanide m-chlorophenylhydrazone], the Lucigenin dependent chemiluminescence ([3]; inhibitor 10 μM) was 12.61 ± 6.97 counts/5 min × 104 and the “effect of mitochondrial electron transport chain inhibitors on response to NADPH” value [3] was “none of which were effective”.
For `CC[C@H]1/C=C/C=C/C[C@@H](C)[C@H](O)[C@@](C)(O)C(=O)[C@@H](C)[C@H](O)[C@@H](C)C(=O)[C@@H](C)[C@H](O)[C@@H](C)/C=C/C(=O)O[C@@H]2[C@H](C)[C@H](CC1)O[C@]1(CC[C@H](C)[C@H](C[C@@H](C)O)O1)[C@H]2C` [oligomycin], the “inhibition of the response to NAD(P)H” value [3] was “no inhibition”.
In the case of `O=C1C=CC(=O)c2c(O)cccc21` [juglone], the mean motility score [1] is reported as 5% and the IC50 ([1]; human sperm in seminal plasma, motility scored approximately 20 seconds after addition, read-out: ID50, dose-dependent inhibition of sperm motility) is reported as ~10 µM.
With `O=c1oc2ccccc2c(O)c1Cc1c(O)c2ccccc2oc1=O` [Dicoumarol, dicoumarol] the Lucigenin dependent chemiluminescence ([3]; inhibitor 100 μM) was 5.20 ± 2.10 counts/5 min × 104 and the “effect on NADPH-dependent reactive oxygen species generation” value [3] was “ineffective”.
antimycin A was tested, and the Lucigenin dependent chemiluminescence ([3]; inhibitor 50 μM) was 10.53 ± 2.49 counts/5 min × 104, the “effect of mitochondrial electron transport chain inhibitors on response to NADPH” value [3] was “none of which were effective” and the “inhibition of the response to NAD(P)H” value [3] was “no inhibition”.
With `NC(=O)C(=O)[O-].[Na+]` [Sodium Oxamate, sodium oxamate] the Lucigenin dependent chemiluminescence ([3]; inhibitor 1 mM) was 5.20 ± 2.10 counts/5 min × 104 and the “effect on NADPH-dependent reactive oxygen species generation” value [3] was “ineffective”.
For `NC(=O)C1=CN([C@@H]2O[C@H](COP(=O)(O)OP(=O)(O)OC[C@H]3O[C@@H](n4cnc5c(N)ncnc54)[C@H](O)[C@@H]3O)[C@@H](O)[C@H]2O)C=CC1` [NADH], the “lucigenin-dependent chemiluminescent response (superoxide anion generation)” value [2] was “approximately one third of that induced by β-NADPH”.
With `CCN(CC)CCCC(C)Nc1c2ccc(Cl)cc2nc2ccc(OC)cc12` (stereo not shown) [quinacrine] the “suppression of NADPH-induced ROS production” value ([3]; 500 μM NADPH, concentrations as high as 50 μM, no dose/response relationship) was 30-40% and the “suppression of responses to PMA” value ([4]; doses of 75-100 M) was “complete loss of activity”.
`NC(=O)C1=CN([C@H]2O[C@H](COP(=O)(O)OP(=O)(O)OC[C@H]3O[C@@H](n4cnc5c(N)ncnc54)[C@H](OP(=O)(O)O)[C@@H]3O)[C@@H](O)[C@H]2O)C=CC1` [α NADPH] was tested, and the “lucigenin-dependent chemiluminescent response (superoxide anion generation)” value [2] was “lack of response”.
